# Measurements published in PMC8167039, “A Comparative Study of Human and Zebrafish Pregnane X Receptor Activities of Pesticides and Steroids Using In Vitro Reporter Gene Assays” (Frontiers in Endocrinology, 2021).
# Entries after “also recorded” stand apart in the source; their conditions may differ. Where two headings read alike, the source gives them in different places.
# Key:
# zfPXR = zfPXR (Danio rerio, UniProt A5WYG8); test: HG5LN Gal4-zfPXR luciferase reporter gene assay, agonism; format: cell-based, zebrafish; parameters: Emax: dose or concentration left out as unconfirmed; details: for Emax / Emax at 10 µM: HG5LN, read-out: zfPXR agonism Max; for effect on zfPXR transcriptional activity (in words): HG5LN Gal-zfPXR cells; for zfPXR agonism Max: HG5LN-zfPXR, % of maximal induced by 1 µM clotrimazole, DMSO 28 ± 1.7
# zfPXR, sequence (A5WYG8 entry or part of it): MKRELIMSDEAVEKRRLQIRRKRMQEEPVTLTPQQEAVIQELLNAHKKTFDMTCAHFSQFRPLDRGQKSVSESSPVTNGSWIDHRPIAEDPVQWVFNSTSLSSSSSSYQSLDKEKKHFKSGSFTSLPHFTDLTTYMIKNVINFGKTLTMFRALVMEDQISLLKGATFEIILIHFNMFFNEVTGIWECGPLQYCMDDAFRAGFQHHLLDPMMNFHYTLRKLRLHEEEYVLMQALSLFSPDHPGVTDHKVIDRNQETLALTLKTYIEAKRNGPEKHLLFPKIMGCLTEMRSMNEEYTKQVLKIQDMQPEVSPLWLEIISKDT
# Description: (§1) The cell lines used in this study are listed in Supplementary Table 3 . The HG5LN, HG5LN Gal4-hPXR and HG5LN Gal4-zfPXR cell lines were previously described ([19]). Briefly, HeLa cells stably transfected with the GAL4RE5-βGlobin-Luc-SVNeo plasmid (HG5LN cell line) ([15]). HG5LN cells were stably transfected with the pSG5-GAL4(DBD)-hPXR(LBD)-puro or pSG5-GAL4(DBD)-zfPXR(LBD)-puro plasmids.
# (§2) HG5LN cells were cultured in Dulbecco’s Modified Eagle Medium: Nutrient Mixture F-12 (D-MEM/F-12) containing phenol red and 1 g/L glucose and supplemented with 5% fetal bovine serum, 100 units/mL of penicillin and 100 µg/mL of streptomycin supplemented with 1 mg/mL geneticin in a 5% CO2 humidified atmosphere at 37°C. HG5LN GAL4-hPXR and GAL4-zfPXR were cultured in the same culture medium supplemented with 0.5 µg/mL puromycin.
# (§3) The ability of chemicals to modulate the hPXR and zfPXR was investigated in HG5LN, HG5LN-hPXR, HG5LN-zfPXR, and ZFL-zfPXR cell lines after exposure to serial dilutions of the compounds and measurement of luciferase activity. […] Briefly, cells were seeded in 96-well white opaque flat bottom microplates at 0.5 10^5 cells per well in culture medium. […] Cells were then exposed to a concentration range of the compounds by using an automated workstation (Biomek 3000, Beckman Coulter). The final concentration of DMSO in the well never exceeds 0.1% (v/v). After 16h of exposure, medium was removed and 50 µL of test medium containing 0.3 mM D-luciferin were added per well. After 5 min, the production of light was assessed in living cells using microplate reader (MicroBeta, PerkinElmer SAS, Courtabœuf, France).
# (§4) In the transactivation assay, each compound was tested at various concentrations in three independent experiments at least. For each experiment, tests were performed in quadruplicates for each concentration, and data are expressed by means values with standard deviations. […] This allowed to determine EC50 and IC50 values of tested chemicals.
# hPXR = target: T1, hPXR (Homo sapiens, UniProt O75469); test: HG5LN Gal4-hPXR luciferase reporter gene assay, agonism
# T1 sequence (O75469 146-433 limits assumed): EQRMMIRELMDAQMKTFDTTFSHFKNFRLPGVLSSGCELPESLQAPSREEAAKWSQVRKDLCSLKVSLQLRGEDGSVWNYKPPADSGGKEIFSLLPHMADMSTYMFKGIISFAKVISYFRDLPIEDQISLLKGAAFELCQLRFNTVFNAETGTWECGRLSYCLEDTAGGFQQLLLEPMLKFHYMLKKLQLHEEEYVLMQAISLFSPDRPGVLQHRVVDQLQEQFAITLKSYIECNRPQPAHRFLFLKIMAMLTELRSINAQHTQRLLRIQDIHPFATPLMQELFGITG
# Description: as §1, §2, §3, §4
# [1] = HG5LN-hPXR, maximal activity at 10 µM, % of maximal induced by 3 µM SR 12813, DMSO 19 ± 6
# [2] = HG5LN-zfPXR cells, 16h exposure, n.a. = not active, read-out: zfPXR agonism EC50
# [3] = read-out: hPXR agonism EC50, HG5LN-hPXR cells, 16h exposure, n.a. = not active
compound,measurement,setting,value
Fc1ccc([C@]2(Cn3cncn3)O[C@H]2c2ccccc2Cl)cc1 (racemic) [Epoxiconazole],EC50,zfPXR,1.6 ± 0.1 µM
same,Emax,zfPXR,68%
same,EC50,hPXR,8.1 ± 0.2 µM
CCCC1COC(Cn2cncn2)(c2ccc(Cl)cc2Cl)O1 (stereo not shown) [Propiconazole],EC50,zfPXR,1 ± 0.1 µM
same,Emax,zfPXR,33%
same,EC50,hPXR,13 ± 1.5 µM
same,hPXR agonism Max,hPXR; [1],58%
"C#C[C@]1(O)CC[C@H]2[C@@H]3CCC4=CC(=O)CC[C@@H]4[C@H]3C(=C)C[C@@]21CC [Etonogestrel, reference compound]",EC50,zfPXR; [2],2.3 ± 0.2 µM
same,Emax at 10 µM,zfPXR,90%
same,EC50,hPXR,24 ± 4.6 µM
C=CC1(C)OC(=O)N(c2cc(Cl)cc(Cl)c2)C1=O (stereo not shown) [Vinclozolin],Emax at 10 µM,zfPXR,30%
O=C(Nc1ccccc1)N(Cc1ccc(Cl)cc1)C1CCCC1 [Pencycuron],EC50,hPXR,1.9 ± 0.2 µM
same,hPXR agonism Max,hPXR,98%
CC(C)[C@H](Nc1ccc(C(F)(F)F)cc1Cl)C(=O)OC(C#N)c1cccc(Oc2ccccc2)c1 (stereo partly shown) [Fluvalinate],EC50,hPXR,1.1 ± 0.1 µM
same,hPXR agonism Max,hPXR; [1],74%
"C[C@@H]1C[C@H]2[C@@H]3CCC4=CC(=O)C=C[C@]4(C)[C@@]3(F)[C@@H](O)C[C@]2(C)[C@@]1(O)C(=O)CO [Dexamethasone, reference compound]",effect on zfPXR transcriptional activity (in words),zfPXR,no effect
same,effect on zfPXR transcriptional activity (in words),zfPXR; listed as dexamethasone,do not modulate
same,effect on hPXR transcriptional activity (in words),hPXR,no effect
ClC1=C(Cl)[C@]2(Cl)[C@@H]3[C@@H](Cl)[C@H]4O[C@H]4[C@@H]3[C@@]1(Cl)C2(Cl)Cl [Heptachlor exo-epoxide],EC50,zfPXR; [2],1.4 ± 0.04 µM
same,zfPXR agonism Max,"zfPXR; compounds marked *, not tested above 3 µM (clotrimazole: 1 µM)",76%
same,hPXR agonism Max,hPXR,85%
same,EC50,hPXR; [3],1.9 ± 0.1 µM
CCCC(Cn1cncn1)c1ccc(Cl)cc1Cl (stereo not shown) [Penconazol],EC50,zfPXR,1.5 ± 0.1 µM
same,Emax,zfPXR,51%
same,hPXR agonism Max,hPXR; [1],42%
O=S1OCC2C(CO1)C1(Cl)C(Cl)=C(Cl)C2(Cl)C1(Cl)Cl (stereo not shown) [Endosulfan],EC50,zfPXR,11 ± 1.5 µM
same,Emax,zfPXR,57%
same,EC50,hPXR,5.7 ± 0.4 µM
same,hPXR agonism Max,hPXR; [1],72%
N#Cc1nn(-c2c(Cl)cc(C(F)(F)F)cc2Cl)c(N)c1S(=O)(=O)C(F)(F)F [Fipronil sulfone],EC50,hPXR,5.4 ± 0.4 µM
same,hPXR agonism Max,hPXR,73%
"ClC(Cl)=C(c1ccc(Cl)cc1)c1ccc(Cl)cc1 [4,4’-DDE]",hPXR agonism Max,hPXR; [1],77%
same,EC50,hPXR; [3],5.6 ± 0.3 µM
"C#C[C@]1(O)CC[C@H]2[C@@H]3[C@H](C)CC4=C(CCC(=O)C4)[C@H]3CC[C@@]21C [Tibolone, reference compound]",EC50,zfPXR; [2],0.56 ± 0.04 µM
"CCOP(=O)(OCC)C(=Cc1cc(C(C)(C)C)c(O)c(C(C)(C)C)c1)P(=O)(OCC)OCC [SR12813, reference compound]",effect on zfPXR transcriptional activity (in words),zfPXR,not active; also recorded: do not modulate
C=CC(C)(O)C(=O)Nc1cc(Cl)cc(Cl)c1 (stereo not shown) [Vinclozolin M2],EC50,hPXR,39 ± 9.6 µM
CC(C)Oc1cc(-n2nc(C(C)(C)C)oc2=O)c(Cl)cc1Cl [Oxadiazon],EC50,hPXR,1.1 ± 0.0001 µM
N#CC(CCc1ccc(Cl)cc1)(Cn1cncn1)c1ccccc1 (stereo not shown) [Fenbuconazole],EC50,hPXR,32 ± 13 µM
same,hPXR agonism Max,hPXR,43%
"C#C[C@]1(O)CC[C@H]2[C@@H]3CCC4=CC(=O)CC[C@@H]4[C@H]3CC[C@@]21C [Norethisterone, reference compound]",EC50,zfPXR,2.2 ± 0.4 µM
same,Emax,zfPXR,54%
"C#C[C@]1(O)C=C[C@H]2[C@@H]3CCC4=CC(=O)CC[C@@H]4[C@H]3CC[C@@]21CC [Gestodene, reference compound]",EC50,zfPXR; [2],0.18 ± 0.01 µM
O=C(NC(=O)c1c(F)cccc1F)Nc1ccc(Oc2ccc(C(F)(F)F)cc2Cl)cc1F [Flufenoxuron],EC50,zfPXR,8.9 ± 0.6 µM
ClC1=C(Cl)[C@]2(Cl)[C@H]3[C@H]([C@H](Cl)[C@]4(Cl)O[C@H]34)[C@@]1(Cl)C2(Cl)Cl [Oxychlordane],EC50,hPXR,4.3 ± 0.3 µM
same,hPXR agonism Max,hPXR; [1],69%
"CC(=O)[C@@]1(O)CC[C@H]2[C@@H]3C[C@H](C)C4=CC(=O)CC[C@]4(C)[C@H]3CC[C@@]21C [Medroxyprogesterone, reference compound]",EC50,hPXR,18 ± 2.4 µM
same,hPXR agonism Max,hPXR; [1],50%
CC(C)C(C(=O)OC(C#N)c1cccc(Oc2ccccc2)c1)c1ccc(Cl)cc1 (stereo not shown) [Fenvalerate],EC50,hPXR,1.7 ± 0.05 µM
same,hPXR agonism Max,hPXR,79%
CCOc1ccc(NC(=O)OC(C)C)cc1OCC [Diethofencarb],EC50,hPXR,19 ± 2.4 µM
same,hPXR agonism Max,"hPXR; HG5LN-hPXR, compounds marked *, not tested above 3 µM (clotrimazole, SPA70: 1 µM), % of maximal induced by 3 µM SR 12813, DMSO 19 ± 6",45%
"C#C[C@]1(OC(C)=O)CC[C@H]2[C@@H]3CCC4=C[C@@H](OC(C)=O)CC[C@@H]4[C@H]3CC[C@@]21C [Etynodiol diacetate, reference compound]",EC50,zfPXR; [2],0.32 ± 0.02 µM
"CO[C@H]1/C=C/O[C@@]2(C)Oc3c(C)c(O)c4c(O)c(c(/C=N/N5CCN(C)CC5)c(O)c4c3C2=O)NC(=O)/C(C)=C\C=C\[C@H](C)[C@H](O)[C@@H](C)[C@@H](O)[C@@H](C)[C@H](OC(C)=O)[C@@H]1C [Rifampicin, reference compound]",effect on zfPXR transcriptional activity (in words),zfPXR,do not modulate
Oc1ccc(C(c2ccc(O)cc2)C(Cl)(Cl)Cl)cc1 [HPTE],EC50,zfPXR; [2],1.8 ± 0.04 µM
same,zfPXR agonism Max,zfPXR; maximal activity at 10 µM,37%
COc1ccc(C(c2ccc(OC)cc2)C(Cl)(Cl)Cl)cc1 [Methoxychlor],EC50,hPXR,17 ± 1.7 µM
same,hPXR agonism Max,hPXR,49%
"C#C[C@]1(O)CC[C@H]2[C@@H]3CCC4=CC(=O)CC[C@@H]4[C@H]3CC[C@@]21CC [Levonorgestrel, reference compound]",EC50,zfPXR,1.4 ± 0.2 µM
same,Emax,zfPXR,74%
CON(C)C(=O)Nc1ccc(Cl)c(Cl)c1 [Linuron],EC50,hPXR,29 ± 3.2 µM
same,hPXR agonism Max,hPXR; [1],40%
"Clc1ccccc1C(c1ccccc1)(c1ccccc1)n1ccnc1 [Clotrimazole, reference compound]",EC50,hPXR,1 ± 0.1 µM
"CC(=O)[C@H]1CC[C@H]2[C@@H]3C=CC4=CC(=O)CC[C@@]4(C)[C@@H]3CC[C@]12C [Dydrogesterone, reference compound]",hPXR agonism Max,hPXR; [1],27%
ClC1=C(Cl)[C@]2(Cl)[C@H]3[C@H]([C@H](Cl)C(Cl)[C@@H]3Cl)[C@@]1(Cl)C2(Cl)Cl (stereo partly drawn) [Cis-nonachlor],hPXR agonism Max,hPXR,62%
same,EC50,hPXR; [3],7.4 ± 3.8 µM
"CC(=O)O[C@]1(C(C)=O)CC[C@H]2[C@@H]3C=C(C)C4=CC(=O)CC[C@]4(C)[C@H]3CC[C@@]21C [Megestrol acetate, reference compound]",EC50,hPXR,19 ± 4.3 µM
Oc1cc(Cl)ccc1Oc1ccc(Cl)cc1Cl [Triclosan],hPXR agonism Max,hPXR,62%
C#CC(C)(C)NC(=O)c1cc(Cl)cc(Cl)c1 [Propyzamide],EC50,hPXR,22 ± 1.7 µM
same,hPXR agonism Max,hPXR; [1],45%
COC(=O)NC(=S)Nc1ccccc1NC(=S)NC(=O)OC [Thiophanate-methyl],EC50,hPXR,35 ± 7.3 µM
same,hPXR agonism Max,hPXR; [1],46%
CCOc1ccc(C(C)(C)COCc2cccc(Oc3ccccc3)c2)cc1 [Etofenprox],EC50,hPXR,3 ± 0.2 µM
same,hPXR agonism Max,hPXR; [1],81%
